In ChEMBL document CHEMBL1201862, “PubChem BioAssay data set” (2004):
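48-hour exposure; five concentrations; linearly interpolated endpoints. At the GI50, growth is halved.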 The source made the active and inactive calls. Cut-off read from the data, not from the text of the source: active = GI50 up to about 1.1 µM and inactive = higher.

Legend:
Assay in all cases: NCI tumour cell line growth inhibition, 48 h
786-0 = test system: 786-0
A498 = test system: A498
A549 = test system: A549
ACHN = test system: ACHN
CAKI-1 = test system: CAKI-1
CCRF-CEM = test system: CCRF-CEM
COLO 205 = test system: COLO 205
DLD-1 = test system: DLD-1
DMS-114 = test system: DMS-114
DMS-273 = test system: DMS-273
EKVX = test system: EKVX
HCC 2998 = test system: HCC 2998
HCT-116 = test system: HCT-116
HCT-15 = test system: HCT-15
HL-60 = test system: HL-60
HOP-62 = test system: HOP-62
HOP-92 = test system: HOP-92
HT-29 = test system: HT-29
IGROV-1 = test system: IGROV-1
K562 = test system: K562
KM-20L2 = test system: KM-20L2
KM12 = test system: KM12
LOX IMVI = test system: LOX IMVI
LXFL 529 = test system: LXFL 529
M14 = test system: M14
M19-MEL = test system: M19-MEL
MOLT-4 = test system: MOLT-4
Malme-3M = test system: Malme-3M
NCI-H226 = test system: NCI-H226
NCI-H23 = test system: NCI-H23
NCI-H460 = test system: NCI-H460
OVCAR-3 = test system: OVCAR-3
OVCAR-4 = test system: OVCAR-4
OVCAR-5 = test system: OVCAR-5
OVCAR-8 = test system: OVCAR-8
RPMI-8226 = test system: RPMI-8226
RXF 393 = test system: RXF 393
SF-268 = test system: SF-268
SF-295 = test system: SF-295
SF-539 = test system: SF-539
SK-MEL-28 = test system: SK-MEL-28
SK-MEL-2 = test system: SK-MEL-2
SK-MEL-5 = test system: SK-MEL-5
SK-OV-3 = test system: SK-OV-3
SN12C = test system: SN12C
SNB-19 = test system: SNB-19
SNB-75 = test system: SNB-75
SNB-78 = test system: SNB-78
SR = test system: SR
SW-620 = test system: SW-620
TK-10 = test system: TK-10
U-251 = test system: U-251
UACC-257 = test system: UACC-257
UACC-62 = test system: UACC-62
UO-31 = test system: UO-31
XF498 = test system: XF498

COc1cc([C@H]2c3cc4c(cc3[C@H](NCc3ccc([N+](=O)[O-])cc3)C3COC(=O)[C@H]32)OCO4)cc(OC)c1O (stereo partly drawn)
GI50 (786-0): 0.877 µM (active) | GI50 (A498): 0.378 µM (active) | GI50 (A549): 0.213 µM (active) | GI50 (ACHN): 0.378 µM (active) | GI50 (CAKI-1): 0.424 µM (active) | GI50 (CCRF-CEM): 0.251 µM (active) | GI50 (COLO 205): 2.52 µM (inactive) | GI50 (DLD-1): 2.7 µM (inactive) | GI50 (DMS-114): 2.62 µM (inactive) | GI50 (DMS-273): 0.661 µM (active) | GI50 (EKVX): 3.18 µM (inactive) | GI50 (HCC 2998): 1.23 µM (inactive) | GI50 (HCT-116): 2.36 µM (inactive) | GI50 (HCT-15): 1.61 µM | GI50 (HL-60): 1.02 µM (active) | GI50 (HOP-62): 0.26 µM (active) | GI50 (HOP-92): 2.81 µM (inactive) | GI50 (HT-29): 2.17 µM (inactive) | GI50 (IGROV-1): 12.3 µM (inactive) | GI50 (K562): 3.18 µM (inactive) | GI50 (KM-20L2): 2.48 µM (inactive) | GI50 (KM12): 2.44 µM (inactive) | GI50 (LOX IMVI): 0.92 µM (active) | GI50 (LXFL 529): 5.07 µM (inactive) | GI50 (M14): 1.97 µM (inactive) | GI50 (M19-MEL): 3.85 µM (inactive) | GI50 (MOLT-4): 0.106 µM (active) | GI50 (Malme-3M): 1.56 µM (inactive) | GI50 (NCI-H226): 0.324 µM (active) | GI50 (NCI-H23): 0.398 µM (active) | GI50 (NCI-H460): < 0.0282 µM (active) | GI50 (OVCAR-3): 3.08 µM (inactive) | GI50 (OVCAR-4): 72.8 µM (inactive) | GI50 (OVCAR-5): 2.89 µM (inactive) | GI50 (OVCAR-8): 1.63 µM (inactive) | GI50 (RPMI-8226): 0.938 µM (active) | GI50 (RXF 393): 3.37 µM (inactive) | GI50 (SF-268): 1.47 µM (inactive) | GI50 (SF-295): 0.681 µM (active) | GI50 (SF-539): 0.745 µM (active) | GI50 (SK-MEL-28): 5.45 µM (inactive) | GI50 (SK-MEL-2): 4.38 µM (inactive) | GI50 (SK-MEL-5): 2.29 µM (inactive) | GI50 (SK-OV-3): 2.24 µM (inactive) | GI50 (SN12C): 0.807 µM (active) | GI50 (SNB-19): 1.01 µM (active) | GI50 (SNB-75): 1.45 µM (inactive) | GI50 (SNB-78): 5.94 µM (inactive) | GI50 (SR): 0.0333 µM (active) | GI50 (SW-620): 1.03 µM (active) | GI50 (TK-10): 1.96 µM (inactive) | GI50 (U-251): 0.655 µM (active) | GI50 (UACC-257): 7.96 µM (inactive) | GI50 (UACC-62): 1.07 µM (active) | GI50 (UO-31): 1.79 µM (inactive) | GI50 (XF498): 3.32 µM (inactive)

N#Cc1c2c(c(N=[N+]=[N-])n3c1nc1ccccc13)CCCC2
GI50 (786-0): 1.9 µM (inactive) | GI50 (A498): 2.65 µM (inactive) | GI50 (A549): 4.67 µM (inactive) | GI50 (ACHN): 2.16 µM (inactive) | GI50 (CAKI-1): 2.72 µM (inactive) | GI50 (COLO 205): 3.27 µM (inactive) | GI50 (DLD-1): 1.39 µM (inactive) | GI50 (DMS-114): 1.19 µM (inactive) | GI50 (DMS-273): 2.37 µM (inactive) | GI50 (EKVX): 16.9 µM (inactive) | GI50 (HCC 2998): 12.6 µM (inactive) | GI50 (HCT-116): 1.43 µM (inactive) | GI50 (HCT-15): 2.07 µM | GI50 (HL-60): 2.32 µM (inactive) | GI50 (HOP-62): 16.2 µM (inactive) | GI50 (HT-29): 1.98 µM (inactive) | GI50 (IGROV-1): 2.72 µM (inactive) | GI50 (K562): 2.16 µM (inactive) | GI50 (KM-20L2): 2.24 µM (inactive) | GI50 (KM12): 2.29 µM (inactive) | GI50 (LOX IMVI): 1.8 µM (inactive) | GI50 (M14): 1.93 µM (inactive) | GI50 (M19-MEL): 1.75 µM (inactive) | GI50 (MOLT-4): 1.62 µM (inactive) | GI50 (Malme-3M): 2.4 µM (inactive) | GI50 (NCI-H226): 1.73 µM (inactive) | GI50 (NCI-H23): 2.55 µM (inactive) | GI50 (NCI-H460): 1.92 µM (inactive) | GI50 (OVCAR-3): 3.37 µM (inactive) | GI50 (OVCAR-4): 2.49 µM (inactive) | GI50 (OVCAR-5): 6.07 µM (inactive) | GI50 (OVCAR-8): 1.69 µM (inactive) | GI50 (RPMI-8226): 1.71 µM (inactive) | GI50 (RXF 393): 1.77 µM (inactive) | GI50 (SF-268): 3.49 µM (inactive) | GI50 (SF-295): 2.05 µM (inactive) | GI50 (SF-539): 1.93 µM (inactive) | GI50 (SK-MEL-28): 4.12 µM (inactive) | GI50 (SK-MEL-2): 1.73 µM (inactive) | GI50 (SK-MEL-5): 18.3 µM (inactive) | GI50 (SK-OV-3): 1.8 µM (inactive) | GI50 (SN12C): 2.14 µM (inactive) | GI50 (SNB-19): 2.55 µM (inactive) | GI50 (SNB-75): 1.97 µM (inactive) | GI50 (SNB-78): 3.56 µM (inactive) | GI50 (SR): 2.1 µM (inactive) | GI50 (SW-620): 2.05 µM (inactive) | GI50 (TK-10): 2.77 µM (inactive) | GI50 (U-251): 3.39 µM (inactive) | GI50 (UACC-257): 1.71 µM (inactive) | GI50 (UO-31): 1.94 µM (inactive) | GI50 (XF498): 1.75 µM (inactive)
